Assay: Solubility of Haloperidol in the hexPLA matrix
Assay type: physicochemical
Conditions: depends on polymer molecular weight

Solubility of Haloperidol in hexPLA matrix: dissolvable
SMILES: O=C(CCCN1CCC(O)(c2ccc(Cl)cc2)CC1)c1ccc(F)cc1 [Haloperidol]

Source: US9549985B2, “Compositions comprising polymers prepared from 2-hydroxyalkyl acids” (UNIVERSITE DE GENEVE, priority 2010, dated 2017)
